Read-outs that look alike come from different tables or passages of the source. Starred links: 1 amine or outer side, 2 acyl side, 3 side chain; linkers in the order of their positions; H or OH if unused. Positions of bridges follow the written chain, without caps; N, C: chain ends. Non-standard residues stand in square brackets, D forms with d. Residues, ends and D or L forms follow the SMILES beside them. ξ: configuration not given here. *: point of attachment. Phe(4-(CH2)5CO) = O=C([C@H](Cc1ccc(CCCCCC(=O)[*:3])cc1)N[*:1])[*:2]; Met(O2) = CS(=O)(=O)CC[C@H](N)C(=O)O; NMeF = CN[C@@H](Cc1ccccc1)C(=O)O; NMeI = CC[C@H](C)[C@H](NC)C(=O)O; NMeβAla = CN(CCC(=O)[*:2])[*:1]; NMeL = CN[C@@H](CC(C)C)C(=O)O; Thr(3ξ) = CC(O)[C@H](N)C(=O)O; NMeV = CN[C@H](C(=O)O)C(C)C; NMeA = CN[C@@H](C)C(=O)O; Piperidide = C1CCN(*)CC1; dNMeA = CN[C@H](C)C(=O)O; β3hA = C[C@H](N)CC(=O)O; Sar = CNCC(=O)O; tBu = CC(C)(C)*
Columns and labels:
[1] = Metabolic stability in human hepatic microsome; assay type: in vitro ADME; settings: microsomes
[2] = PAMPA (parallel artificial membrane permeability assay); assay type: in vitro ADME; settings: for Papp at 18 hours, 50 µM: PAMPA
Outline: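 Artificial membrane was 10% (w/v) egg lecithin plus 0.5% (w/v) cholesterol in dodecane on a PVDF filter. A 10 mM DMSO stock was added at 0.5% (v/v) to donor buffer (50 mM MOPSO, pH 6.5, 5.0% glycocholic acid). After 18 h at 37 °C, LC/MS or LC/UV gave donor and acceptor levels for Pe.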

[3] = pH 7.4, human hepatic microsome, NADPH(+), read-out: CL NADPH(+)
[4] = membrane permeation rate (Pe), 50 mM MOPSO buffer pH 6.5 with 5.0% glycocholic acid, 37° C., 18 hours, read-out: iPAMPA Pe

Structure (SMILES) | microsomal CLint at 1 uM [1, 3] | iPAMPA Pe ([2]; membrane permeation rate (Pe), 50 mM MOPSO buffer pH 6.5 with 5.0% glycocholic acid, 37° C., 18 hours) | Papp at 18 hours, 50 µM [2, 4] | microsomal CLint at 1 uM ([1]; human, pH 7.4, CL NADPH(+)) | Papp at 18 hours, 50 µM ([2]; pH 6.5)
CC[C@H](C)[C@@H]1NC(=O)[C@H](CC(C)C)N(C)C(=O)CN(C)C(=O)[C@H]([C@@H](C)O)NC(=O)[C@H](C)N(C)C(=O)C[C@@H](C(=O)N[C@@H](C)C(=O)N2CCCCC2)NC(=O)[C@H](CC(C)C)N(C)C(=O)[C@H](Cc2ccccc2)N(C)C(=O)[C@H](CC(C)C)N(C)C1=O [DP-664] ([NMeA]T[Sar][NMeL]I[NMeL][NMeF][NMeL]DA-Piperidide; lactam N-9) | 304 µL/min/mg | 7.0E−05 |  |  | 
CC[C@H](C)[C@@H]1NC(=O)[C@H](CC(C)C)N(C)C(=O)CN(C)C(=O)[C@H]([C@@H](C)O)NC(=O)[C@H](Cc2ccccc2)N(C)C(=O)[C@H](CC(C)C)N(C)C(=O)[C@H](C)N(C)C(=O)C[C@@H](C(=O)N2CCCCC2)NC(=O)[C@H](CC(C)C)N(C)C1=O [DP-342] ([NMeA][NMeL][NMeF]T[Sar][NMeL]I[NMeL]D-Piperidide; lactam N-9) | 121 µL/min/mg |  | 33 ×10⁻⁶ cm/s |  | 
CC(C)C[C@@H]1NC(=O)[C@H](Cc2ccccc2)N(C)C(=O)[C@H]([C@@H](C)O)NC(=O)[C@H](Cc2ccccc2)N(C)C(=O)[C@H](C)N(C)C(=O)[C@H](C)N(C)C(=O)C[C@@H](C(=O)N2CCCCC2)NC(=O)[C@@H]2CCCN2C1=O [DP-687] ([NMeA][NMeA][NMeF]T[NMeF]LPD-Piperidide; lactam N-8) |  |  |  | 10 µL/min/mg | 10 ×10⁻⁶ cm/s
CC[C@H](C)[C@@H]1NC(=O)[C@H](Cc2ccccc2)N(C)C(=O)CCCCCc2ccc(cc2)C[C@@H](C(=O)N2CCCCC2)NC(=O)[C@H](C(C)C)N(C)C(=O)[C@H](Cc2ccccc2)N(C)C(=O)[C@H](COC(C)(C)C)NC(=O)[C@H](CC(C)C)N(C)C(=O)CN(C)C(=O)[C@H]([C@@H](C)O)NC(=O)[C@H](CC(C)C)N(C)C1=O [DP-861] ([NMeF]I[NMeL]T[Sar][NMeL]S(tBu)[NMeF][NMeV][Phe(4-(CH2)5CO)]-Piperidide; lactam N-10) | 320 µL/min/mg |  | 2.9 ×10⁻⁶ cm/s |  | 
CC(C)C[C@@H]1NC(=O)[C@H](CC(C)C)N(C)C(=O)[C@H](C)N(C)C(=O)[C@@H](C(C)C)NC(=O)C[C@@H](C(=O)N2CCCCC2)NC(=O)[C@H](CCS(C)(=O)=O)NC(=O)[C@H](CC(C)C)N(C)C(=O)[C@H](C)N(C)C(=O)[C@H](CC(C)C)N(C)C(=O)[C@H](Cc2ccccc2)NC(=O)[C@H](Cc2ccccc2)N(C)C1=O [DP-620] ([dV][NMeA][NMeL]L[NMeF]F[NMeL][NMeA][NMeL][Met(O2)]D-Piperidide; lactam N-11) | 26 µL/min/mg |  | 24 ×10⁻⁶ cm/s |  | 
CC(C)C[C@@H]1NC(=O)[C@H](CC(C)C)N(C)C(=O)[C@@H](C(C)C)NC(=O)C[C@@H](C(=O)N2CCCCC2)NC(=O)[C@H](CC(C)C)N(C)C(=O)[C@H](Cc2ccccc2)N(C)C(=O)[C@H](C)N(C)C(=O)[C@H]([C@@H](C)O)NC(=O)[C@H](Cc2ccccc2)N(C)C1=O [DP-264] ([dV][NMeL]L[NMeF]T[NMeA][NMeF][NMeL]D-Piperidide; lactam N-9) | 94 µL/min/mg |  | 37 ×10⁻⁶ cm/s |  | 
CC(C)C[C@H]1C(=O)N(C)[C@@H](Cc2ccccc2)C(=O)N[C@@H]([C@@H](C)O)C(=O)N(C)[C@@H](C)C(=O)N(C)[C@@H](CC(C)C)C(=O)N(C)[C@@H](C)C(=O)N[C@H](C(=O)N2CCCCC2)CC(=O)N(C)CCC(=O)N(C)[C@@H](C)C(=O)N[C@@H](C)C(=O)N(C)[C@@H](C(C)C)C(=O)N1C [DP-414] ([NMeβAla][NMeA]A[NMeV][NMeL][NMeF]T[NMeA][NMeL][NMeA]D-Piperidide; lactam N-11) | 20 µL/min/mg |  | 4.4 ×10⁻⁶ cm/s |  | 
CC(C)C[C@H]1C(=O)N(C)[C@@H](Cc2ccccc2)C(=O)N(C)[C@@H](Cc2ccccc2)C(=O)N[C@@H]([C@@H](C)O)C(=O)N(C)[C@@H](C)C(=O)N(C)[C@@H](CC(C)C)C(=O)N[C@H](C(=O)N2CCCCC2)CC(=O)N(C)[C@@H](C)C(=O)N(C)[C@@H](CC(C)C)C(=O)N(C)[C@@H](CC(C)C)C(=O)N[C@@H](C)C(=O)N1C [DP-158] ([NMeA][NMeL][NMeL]A[NMeL][NMeF][NMeF]T[NMeA][NMeL]D-Piperidide; lactam N-11) | 41 µL/min/mg |  | 49 ×10⁻⁶ cm/s |  | 
CC(C)C[C@@H]1NC(=O)[C@H](CC(C)C)N(C)C(=O)[C@H](Cc2ccccc2)N(C)C(=O)CNC(=O)[C@H]([C@@H](C)O)NC(=O)[C@H](CC(C)C)N(C)C(=O)[C@H](Cc2ccccc2)NC(=O)[C@@H](C)N(C)C(=O)C[C@@H](C(=O)N2CCCCC2)NC(=O)[C@H](COC(C)(C)C)NC1=O [DP-120] ([dNMeA]F[NMeL]TG[NMeF][NMeL]LS(tBu)D-Piperidide; lactam N-10) | 84 µL/min/mg |  | 50 ×10⁻⁶ cm/s |  | 
CC(C)C[C@H]1C(=O)N[C@H](C(=O)N(C)[C@@H](Cc2ccccc2)C(=O)N[C@@H](C)C(=O)N2CCCCC2)CC(=O)N(C)[C@@H](C)C(=O)N[C@@H](Cc2ccccc2)C(=O)N(C)[C@@H](C(C)C)C(=O)N(C)[C@@H](C)C(=O)N[C@@H]([C@@H](C)O)C(=O)N(C)[C@@H](C)C(=O)N(C)[C@@H](CC(C)C)C(=O)N[C@@H](C)C(=O)N1C [DP-296] ([NMeA]F[NMeV][NMeA]T[NMeA][NMeL]A[NMeL]D[NMeF]A-Piperidide; lactam N-10) |  |  |  | 64 µL/min/mg | 15 ×10⁻⁶ cm/s
CC(C)C[C@H]1C(=O)N[C@@H](C)C(=O)N(C)[C@@H](Cc2ccccc2)C(=O)N(C)[C@@H](C(C)C)C(=O)N[C@@H](C)C(=O)N(C)[C@@H](C)C(=O)N[C@H](C(=O)N(C)[C@@H](Cc2ccccc2)C(=O)N[C@@H](C)C(=O)N2CCCCC2)CC(=O)N(C)[C@@H](C)C(=O)N(C)[C@@H](Cc2ccccc2)C(=O)N[C@@H]([C@@H](C)O)C(=O)N(C)[C@@H](C)C(=O)N1C [DP-367] ([NMeA][NMeF]T[NMeA][NMeL]A[NMeF][NMeV]A[NMeA]D[NMeF]A-Piperidide; lactam N-11) | 17 µL/min/mg |  | 12 ×10⁻⁶ cm/s |  | 
CC(C)C[C@@H]1NC(=O)[C@H](C(C)C)N(C)C(=O)[C@H](C)N(C)C(=O)[C@H](Cc2ccccc2)N(C)C(=O)[C@H](Cc2ccccc2)NC(=O)[C@@H](C)N(C)C(=O)C[C@@H](C(=O)N2CCCCC2)NC(=O)[C@H]([C@@H](C)O)NC(=O)[C@H](C)N(C)C(=O)[C@H](C)N(C)C(=O)[C@H](C)NC(=O)CN(C)C1=O [DP-467] ([dNMeA]F[NMeF][NMeA][NMeV]L[Sar]A[NMeA][NMeA]TD-Piperidide; lactam N-12) | 12 µL/min/mg |  | 1.5 ×10⁻⁶ cm/s |  | 
CC[C@H](C)[C@H]1C(=O)N(C)[C@@H](C)C(=O)N(C)[C@@H](CC(C)C)C(=O)N[C@@H](COC(C)(C)C)C(=O)N(C)[C@@H](CC(C)C)C(=O)N[C@@H](C)CC(=O)N(C)[C@@H](C)C(=O)N(C)[C@@H](Cc2ccccc2)C(=O)N[C@@H](C)C(=O)N(C)[C@@H](CC(C)C)C(=O)N[C@@H]([C@@H](C)O)C(=O)N[C@@H](Cc2ccccc2)C(=O)N1C [DP-759] (cyclo(A[NMeL]TF[NMeI][NMeA][NMeL]S(tBu)[NMeL][β3hA][NMeA][NMeF])) |  |  |  | 144 µL/min/mg | 27 ×10⁻⁶ cm/s
CC(C)C[C@H]1C(=O)N(C)[C@@H](Cc2ccccc2)C(=O)N(C)[C@@H](CC(C)C)C(=O)N[C@@H](C)CC(=O)N[C@H](C(C)C)C(=O)N[C@@H](C)C(=O)N[C@@H]([C@@H](C)O)C(=O)N(C)[C@@H](C)C(=O)N[C@@H](Cc2ccccc2)C(=O)N1C [DP-788] (cyclo(AT[NMeA]F[NMeL][NMeF][NMeL][β3hA][dV])) | 158 µL/min/mg |  | 49 ×10⁻⁶ cm/s |  | 
CC(C)C[C@H]1C(=O)N(C)[C@@H](C(C)C)C(=O)N[C@@H](Cc2ccccc2)C(=O)N[C@H](C(=O)N2CCCCC2)CC(=O)N[C@H](C(C)C)C(=O)N[C@@H](COC(C)(C)C)C(=O)N(C)[C@@H](CC(C)C)C(=O)N[C@@H]([C@@H](C)O)C(=O)N(C)[C@@H](Cc2ccccc2)C(=O)NCC(=O)N1C [DP-171] ([dV]S(tBu)[NMeL]T[NMeF]G[NMeL][NMeV]FD-Piperidide; lactam N-10) | 191 µL/min/mg |  | 50 ×10⁻⁶ cm/s |  | 
CC[C@H](C)[C@@H]1NC(=O)[C@H](CC(C)C)NC(=O)CCN(C)C(=O)C[C@@H](C(=O)N2CCCCC2)NC(=O)[C@H](CC(C)C)NC(=O)[C@H](Cc2ccccc2)NC(=O)[C@H]([C@@H](C)O)NC(=O)[C@H](CC(C)C)NC(=O)[C@H](C(C)C)NC(=O)[C@H](CC(C)C)NC(=O)CN(C)C1=O [DP-411] ([NMeβAla]LI[Sar]LVLTFLD-Piperidide; lactam N-11) | 114 µL/min/mg |  | 8.4 ×10⁻⁶ cm/s |  | 
C=C1CCC(=O)N(C)[C@@H](Cc2ccccc2)C(=O)N(C)[C@@H](CC(C)C)C(=O)N[C@@H]([C@@H](C)CC)C(=O)N(C)[C@@H](C)C(=O)N(C)[C@@H](Cc2ccccc2)C(=O)N[C@@H]([C@@H](C)O)C(=O)N(C)[C@@H](C)C(=O)N(C)[C@@H](CC(C)C)C(=O)N[C@H](C(=O)N2CCCCC2)Cc2cccc1c2 [DP-834] |  |  |  | 501 µL/min/mg | 14 ×10⁻⁶ cm/s
CC[C@H](C)[C@@H]1NC(=O)[C@H](CC(C)C)N(C)C(=O)[C@H](Cc2ccccc2)NC(=O)[C@@H](C)N(C)C(=O)C[C@@H](C(=O)N2CCCCC2)NC(=O)[C@H](Cc2ccccc2)NC(=O)[C@H](C(C)O)NC(=O)[C@@H]2CCCN2C(=O)[C@H](CC(C)C)N(C)C(=O)CNC(=O)[C@H](CC(C)C)N(C)C1=O (stereo partly drawn) [DP-162] ([dNMeA]F[NMeL]I[NMeL]G[NMeL]P[Thr(3ξ)]FD-Piperidide; lactam N-11) | 90 µL/min/mg |  | 35 ×10⁻⁶ cm/s |  | 
